Data reported in patent publication US9758557B2, “C1q peptides and uses thereof” (THE FEINSTEIN INSTITUTE FOR MEDICAL RESEARCH, priority 2013, dated 2017).

Assays:
R4A binding to C1q = experiment: ELISA, inhibition of R4A binding to C1q by peptide
Protocol: (§1) ELISAs—Costar half-volume 96-well plates (Corning, N.Y.) were used for C1q ELISAs and Immulon 2HB 96-well plates (Milford, Mass.) were used for DNA ELISAs. C1q was purchased from Comptech (Tyler, Tex.) and adsorbed to 96-well plate (50 μg/ml) Plates were blocked with 2% BSA in PBS for 1 hour at RT. R4A antibody or IgG2b control immunoglobulin (MPC-11 hybridoma, ATCC, Manassas, Va.) was added for 1 hour at RT at various concentrations of NaCl. Cytokine ELISA was performed according to manufacturer's protocol (BD Biosciences, San Diego, Calif.). C1q collagen-tail of C1q was prepared as described in [21].

R4A binding to dsDNA = experiment: DNA ELISA, inhibition of R4A binding to dsDNA by fluid phase C1q; details: immobilized dsDNA
Protocol: as §1

inhibition of R4A binding to C1q (R4A binding to C1q) | inhibition of R4A binding to dsDNA (R4A binding to dsDNA) | Substance
inhibited | – | DWEYS [reference compound]
– | inhibited | C1q: human complement C1q, purchased from Comptech
inhibited | – | EADYG (fusion protein)
